# Results from ChEMBL document CHEMBL1156714, “Microwave induced synthesis of novel 8,9-dihydro-7H-pyrimido[4,5-b][1,4]diazepines as potential antitumor agents” (2008).
# Active and inactive are the calls of the source. The calls are words filed in the database; no cut-off is given here.
# Key:
# NCI-60 = test: Growth inhibition of human NCI-60 cells at 1.0 uM; assay type: functional, cell-based
# [1] = Growth inhibition of human HL60(TB) cells after 48 hrs by SRB assay; assay type: functional, HL-60(TB); conditions: Homo sapiens, HL-60, 48 h
# K562 = test: Growth inhibition of human K562 cells after 48 hrs by SRB assay; assay type: functional; conditions: K562, 48 h
# MOLT-4 = test: Growth inhibition of human MOLT4 cells after 48 hrs by SRB assay; assay type: functional; conditions: MOLT-4, 48 h
# A549 = test: Growth inhibition of human A549 cells after 48 hrs by SRB assay; assay type: functional; conditions: A549, 48 h
# NCI-H226 = test: Growth inhibition of human NCI-H226 cells after 48 hrs by SRB assay; assay type: functional; conditions: NCI-H226, 48 h
# NCI-H23 = test: Growth inhibition of human NCI-H23 cells after 48 hrs by SRB assay; assay type: functional; conditions: NCI-H23, 48 h
# NCI-H322M = test: Growth inhibition of human NCI-H322M cells after 48 hrs by SRB assay; assay type: functional
# NCI-H460 = test: Growth inhibition of human NCI-H460 cells after 48 hrs by SRB assay; assay type: functional; conditions: NCI-H460, 48 h
# NCI-H522 = test: Growth inhibition of human NCI-H522 cells after 48 hrs by SRB assay; assay type: functional; conditions: NCI-H522, 48 h
# HCC 2998 = test: Growth inhibition of human HCC2998 cells after 48 hrs by SRB assay; assay type: functional; conditions: HCC 2998, 48 h
# HCT-15 = test: Growth inhibition of human HCT15 cells after 48 hrs by SRB assay; assay type: functional; conditions: HCT-15, 48 h
# HT-29 = test: Growth inhibition of human HT29 cells after 48 hrs by SRB assay; assay type: functional; conditions: HT-29, 48 h
# KM12 = test: Growth inhibition of human KM12 cells after 48 hrs by SRB assay; assay type: functional; conditions: KM12, 48 h
# SW-620 = test: Growth inhibition of human SW620 cells after 48 hrs by SRB assay; assay type: functional; conditions: SW-620, 48 h
# SNB-75 = test: Growth inhibition of human SNB75 cells after 48 hrs by SRB assay; assay type: functional; conditions: SNB-75, 48 h
# U-251 = test: Growth inhibition of human U251 cells after 48 hrs by SRB assay; assay type: functional; conditions: U-251, 48 h
# LOX IMVI = test: Growth inhibition of human LOX IMVI cells after 48 hrs by SRB assay; assay type: functional
# SK-MEL-28 = test: Growth inhibition of human SK-MEL-28 cells after 48 hrs by SRB assay; assay type: functional; conditions: SK-MEL-28, 48 h
# SK-MEL-5 = test: Growth inhibition of human SK-MEL-5 cells after 48 hrs by SRB assay; assay type: functional; conditions: SK-MEL-5, 48 h
# UACC-62 = test: Growth inhibition of human UACC62 cells after 48 hrs by SRB assay; assay type: functional; conditions: UACC-62, 48 h
# IGROV-1 = test: Growth inhibition of human IGROV1 cells after 48 hrs by SRB assay; assay type: functional; conditions: IGROV-1, 48 h
# [2] = Growth inhibition of human OVACR3 cells after 48 hrs by SRB assay; assay type: functional
# [3] = Growth inhibition of human OVACR4 cells after 48 hrs by SRB assay; assay type: functional
# [4] = Growth inhibition of human […] cells after 48 hrs by SRB assay; assay type: functional
# SK-OV-3 = test: Growth inhibition of human SK-OV-3 cells after 48 hrs by SRB assay; assay type: functional; conditions: SK-OV-3, 48 h
# A498 = test: Growth inhibition of human A498 cells after 48 hrs by SRB assay; assay type: functional; conditions: A498, 48 h
# ACHN = test: Growth inhibition of human ACHN cells after 48 hrs by SRB assay; assay type: functional
# CAKI-1 = test: Growth inhibition of human CAKI1 cells after 48 hrs by SRB assay; assay type: functional; conditions: CAKI-1, 48 h
# RXF 393 = test: Growth inhibition of human […] cells after 48 hrs by SRB assay; assay type: functional; conditions: RXF 393, 48 h
# SN12C = test: Growth inhibition of human SN12C cells after 48 hrs by SRB assay; assay type: functional
# TK-10 = test: Growth inhibition of human TK10 cells after 48 hrs by SRB assay; assay type: functional; conditions: TK-10, 48 h
# UO-31 = test: Growth inhibition of human UO31 cells after 48 hrs by SRB assay; assay type: functional; conditions: UO-31, 48 h
# DU-145 = test: Growth inhibition of human DU145 cells after 48 hrs by SRB assay; assay type: functional; conditions: DU-145, 48 h
# MCF7 = test: Growth inhibition of human MCF7 cells after 48 hrs by SRB assay; assay type: functional; conditions: MCF7, 48 h
# NCI/ADR-RES = test: Growth inhibition of human NCI/ADR-RES cells after 48 hrs by SRB assay; assay type: functional
# MDA-MB-231 = test: Growth inhibition of human MDA-MB-231 cells after 48 hrs by SRB assay; assay type: functional; conditions: MDA-MB-231, 48 h
# Hs-578T = test: Growth inhibition of human HS578T cells after 48 hrs by SRB assay; assay type: functional
# MDA-MB-435 = test: Growth inhibition of human MDA-MB-435 cells after 48 hrs by SRB assay; assay type: functional; conditions: MDA-MB-435, 48 h
# T47D = test: Growth inhibition of human T47D cells after 48 hrs by SRB assay; assay type: functional
# MDA-MB-468 = test: Growth inhibition of human MDA-MB-468 cells after 48 hrs by SRB assay; assay type: functional; conditions: MDA-MB-468, 48 h
# [5] = read-out: LC50 (the source's name)
structure (smiles),measurement,setting,value
Cc1ccc(C2=Nc3c(N)ncnc3NC(c3ccc4c(c3)OCO4)C2)cc1 (racemic),Activity,NCI-60,Active
same,GI50,[1],0.72 µM
same,CC50,[1]; [5],> 100 µM
same,GI50,K562,4.19 µM
same,LC50,K562,> 100 µM
same,GI50,MOLT-4,2.66 µM
same,CC50,MOLT-4; [5],> 100 µM
same,GI50,A549,7.09 µM
same,LC50,A549,> 100 µM
same,GI50,NCI-H226,12.6 µM
same,CC50,NCI-H226; [5],> 100 µM
same,GI50,NCI-H23,10.2 µM
same,CC50,NCI-H23; [5],> 100 µM
same,GI50,NCI-H322M,16.5 µM
same,CC50,NCI-H322M; [5],> 100 µM
same,GI50,NCI-H460,3.59 µM
same,CC50,NCI-H460; [5],> 100 µM
same,GI50,NCI-H522,3.67 µM
same,CC50,NCI-H522; [5],> 100 µM
same,GI50,HCC 2998,6.29 µM
same,LC50 (concentration killing 50% of cells),HCC 2998,> 100 µM
same,GI50,HCT-15,3.14 µM
same,CC50,HCT-15; [5],55.2 µM
same,GI50,HT-29,3.81 µM
same,CC50,HT-29; [5],> 100 µM
same,GI50,KM12,3.79 µM
same,CC50,KM12; [5],75.1 µM
same,GI50,SW-620,3.56 µM
same,CC50,SW-620; [5],> 100 µM
same,GI50,SNB-75,4.55 µM
same,CC50,SNB-75; [5],> 100 µM
same,GI50,U-251,4.55 µM
same,CC50,U-251; [5],44.5 µM
same,GI50,LOX IMVI,6.38 µM
same,CC50,LOX IMVI; [5],81.5 µM
same,GI50,SK-MEL-28,10.2 µM
same,CC50,SK-MEL-28; [5],> 100 µM
same,GI50,SK-MEL-5,3.85 µM
same,CC50,SK-MEL-5; [5],> 100 µM
same,GI50,UACC-62,4.09 µM
same,CC50,UACC-62; [5],> 100 µM
same,GI50,IGROV-1,3.34 µM
same,CC50,IGROV-1; [5],> 100 µM
same,GI50,[2],2.75 µM
same,LC50,[2],23.3 µM
same,GI50,[3],17.7 µM
same,LC50,[3],> 100 µM
same,GI50,[4],13.5 µM
same,CC50,[4]; [5],> 100 µM
same,GI50,SK-OV-3,15.8 µM
same,CC50,SK-OV-3; [5],> 100 µM
same,GI50,A498,6.33 µM
same,LC50,A498,> 100 µM
same,GI50,ACHN,7.74 µM
same,LC50 (lethal concentration 50%),ACHN,> 100 µM
same,GI50,CAKI-1,1.44 µM
same,CC50,CAKI-1; [5],> 100 µM
same,GI50,RXF 393,3.5 µM
same,CC50,RXF 393; [5],> 100 µM
same,GI50,SN12C,8.61 µM
same,CC50,SN12C; [5],> 100 µM
same,GI50,TK-10,4.47 µM
same,CC50,TK-10; [5],69.7 µM
same,GI50,UO-31,10.8 µM
same,CC50,UO-31; [5],65.2 µM
same,GI50,DU-145,4.52 µM
same,CC50,DU-145; [5],46.7 µM
same,GI50,MCF7,3.42 µM
same,LC50,MCF7,> 100 µM
same,GI50,NCI/ADR-RES,3.52 µM
same,CC50,NCI/ADR-RES; [5],> 100 µM
same,GI50,MDA-MB-231,4.37 µM
same,CC50,MDA-MB-231; [5],55.6 µM
same,GI50,Hs-578T,7.28 µM
same,CC50,Hs-578T; [5],> 100 µM
same,GI50,MDA-MB-435,1.15 µM
same,CC50,MDA-MB-435; [5],90.8 µM
same,GI50,T47D,5.72 µM
same,CC50,T47D; [5],> 100 µM
same,GI50,MDA-MB-468,3.68 µM
same,CC50,MDA-MB-468; [5],> 100 µM
